Experimental data taken from the NIST ThermoML archive (doi:10.1016/j.jct.2018.03.009).
Numbers after ± are expanded uncertainties.

Details: 101.33 kPa, Liquid, Pycnometric method

| SMILES | mass density (273.15 K) [kg/m3] | mass density (283.15 K) [kg/m3] |
| --- | --- | --- |
| COCC(C)OC(C)=O (configuration not stated) [1-methoxy-2-propyl acetate] | 989.2 ± 4.4 | 978.2 ± 4.3 |
| CCCCOCCOC(C)=O [2-butoxyethyl acetate] | 960.4 ± 5.5 | 950.4 ± 5.4 |
| COCCOC(C)=O [2-methoxyethyl ethanoate] | 1027.8 ± 5.8 | 1016.8 ± 5.8 |

Now from value to compound:

| mass density (273.15 K) [kg/m3] | mass density (283.15 K) [kg/m3] | SMILES |
| --- | --- | --- |
| 926.4 ± 4.1 | 916.3 ± 4 | CCOCCOCCOCC [diethylene glycol diethyl ether] |
| 975.3 ± 4.3 | 965.3 ± 4.3 | COC(C)CCOC(C)=O (configuration not stated) [3-methoxybutyl acetate] |
| 1030 ± 5.9 | 1020 ± 5.8 | CCOCCOCCOC(C)=O [2-(2-ethoxyethoxy)ethyl acetate] |
